Experimental data: ChEMBL document CHEMBL3886883, “Cyclic amines” (2016)

target: T1, P2X purinoceptor 7 (Homo sapiens, UniProt Q99572); assay: Fluorescent Imaging Plate Reader (FLIPR) Assay: Briefly, 293-human or mouse P2X7 stable cells were incubated in sucrose buffer, pH 7.4 [KCl (5 mM), NaH2PO42H2O (9.6 mM), HEPES (25 mM), sucrose (280 mM), glucose (5 mM), CaCl2 (0.5 mM), and probenecid (0.1425 g in 3 mL 1N NaOH was added for 500 mL solution)] in 384-well plates. 93-rat P2X7 stable cells were incubated in HHPB (pH 7.4) [consisting of Hank's BSS (1X); HEPES (pH 7.4) (20 mM) (Sigma); probenecid (0.710 g/5 mL 1N NaOH) (Sigma); and BSA (0.05%) (Roche) which was added after the pH had been adjusted] in 384-well plates. Fluo-4 NW dye mix (Molecular Probes, Inc., Eugene, Oreg., USA) was prepared in buffer (see manufacturer's instructions). Cell plates were removed from the 37° C. incubator, the media discarded and then 30 μL of dye was added to each well. Plates were placed in the 37° C., non-CO2 incubator for 30 minutes and then room temperature for 30 minutes. Two sets of drug plates were prepared: A) Mixtures of compound plus agonist were prepared as follows, in order to determine close response: BzATP: 11 point ½ log, diluted in buffer, starting from 1 mM. Testing compounds: 11 point ½ log, diluted in 2% DMSO buffer starting from 10 μM. B) Agonist only mixture was prepared with BzATP at a single concentration in buffer (concentration determined by dose response). Compound mixtures (A) were added to assay plates containing cells and placed at room temperature for 30 minutes, then BzATP (B) was added. Fluorescence was read using the Tetra FLIPR® (Molecular Devices, Inc., Sunnyvale, Calif., USA) and IC50 values were calculated by standard methods to determine antagonist activity.; assay type: cell-based
T1 sequence (Q99572 whole entry): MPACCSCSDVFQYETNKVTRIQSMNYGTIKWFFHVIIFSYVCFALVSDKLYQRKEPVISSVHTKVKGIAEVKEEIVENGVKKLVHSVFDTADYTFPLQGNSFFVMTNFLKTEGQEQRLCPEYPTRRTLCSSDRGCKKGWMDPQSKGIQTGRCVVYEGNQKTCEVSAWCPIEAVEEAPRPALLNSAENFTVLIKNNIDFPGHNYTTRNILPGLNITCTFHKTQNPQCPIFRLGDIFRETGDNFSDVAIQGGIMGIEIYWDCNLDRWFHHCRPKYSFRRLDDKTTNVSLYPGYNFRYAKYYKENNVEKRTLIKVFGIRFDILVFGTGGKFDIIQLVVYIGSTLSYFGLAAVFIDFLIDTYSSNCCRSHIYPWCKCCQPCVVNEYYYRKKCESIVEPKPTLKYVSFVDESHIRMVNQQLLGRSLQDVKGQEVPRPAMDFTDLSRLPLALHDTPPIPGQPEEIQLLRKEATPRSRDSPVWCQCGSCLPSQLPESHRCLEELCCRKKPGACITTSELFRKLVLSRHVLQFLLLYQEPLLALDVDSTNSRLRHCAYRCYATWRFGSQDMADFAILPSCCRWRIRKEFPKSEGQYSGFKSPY

IC50 [nM] | SMILES
650 | COc1ccc(C(CNC(=O)c2cc(C)ccc2Cl)N2CCCCC2)cc1 (stereo not drawn)
21 | Cc1ccc(Cl)c(C(=O)NCC(c2ccc(F)cc2)N2CCOCC2)c1 (stereo not drawn)
59 | COc1ccc(C(CNC(=O)c2cc(C)ccc2Cl)N2CCOCC2)cc1 (stereo not drawn)
